Assay results reported in patent publication US20160324863A1, “TARGETED CANCER TREATMENT BY HSP90 INHIBITORS GANETESPIB AND NVP-AUY922” (SYNTA PHARMACEUTICALS CORP., priority 2014, published 2016).

Assays:
[1] = test system: T24 bladder cancer cell line; assay: CellTiter-Glo viability assay, T24; format: cell-based; conditions: FGFR3 status WT, 72 hours, read-out: Ganetespib IC50
Method: (§1) Cellular viability was assessed using the CellTiter-Glo Luminescent Cell Viability Assay (Promega) according to manufacturer protocols. Bladder cancer cell lines were seeded into 96-well plates based on optimal growth rates determined empirically for each line. Twenty-four hours after plating, cells were dosed with graded concentrations of ganetespib for 72 hours. CellTiter-Glo was added (50% v/v) to the cells, and the plates incubated for 10 minutes prior to luminescent detection in a SpectraMax Plus 384 microplate reader (Molecular Devices). Data were normalized to percent of control and IC50 values used to determine the sensitivity of each line. For the comparative analyses with ganetespib and BGJ398, RT112 cells were treated with graded concentrations of each compound for 72 hours and cell viability measured as above. For the evaluation of apoptotic induction, caspase activity was assessed using the Caspase-Glo 3/7 assay (Promega) according to manufacturer protocols. Twenty-four hours after plating, RT112 cells were treated with graded concentrations of ganetespib for 24 hours. Caspase-Glo was added to cells (50% v/v) and the plates incubated for 1 hour prior to luminescent detection.

RT112 cells = assay: LC-MS/MS bioanalysis of ganetespib and glucuronidated metabolites in RT112 cells; format: in vitro ADME; conditions: 1 μM ganetespib, 24-hour time course
Method: (§2) In the first set of experiments, RT112 and SW780 cells were treated with graded concentrations of ganetespib or 17-DMAG (10-1000 nM) for 1 and 24 hours. Cell lysates were prepared for measurement of intracellular concentrations of the respective HSP90 inhibitors. RT112 and SW780 cells were also treated with 1 μM ganetespib for 15 minutes, 1, 4, 8 and 24 hours. At each time point cell lysates were prepared and media was collected for analysis of intracellular and secreted concentrations of ganetespib and its glucuronidated metabolites. Bioanalysis was performed on equal protein concentrations from cell lysates or equal volumes of media. All samples were ultimately extracted by protein precipitation and analyzed by LC-MS/MS using an Agilent 1100 HPLC interfaced to an API 4000 tandem mass spectrometer (Applied Biosystems). A Phenomenex Kinetex 2.6 μm C18 (30×2.1 mm) column was used with a run time of 3.5 min per sample.

[2] = test system: SW780 bladder cancer cell line; assay: CellTiter-Glo viability assay, SW780; format: cell-based; conditions: Homo sapiens, FGFR3 status FGFR3-BAIAP2L1, 72 hours, read-out: Ganetespib IC50
Method: as §1

[3] = test system: UM-UC3 bladder cancer cell line; assay: CellTiter-Glo viability assay, UM-UC3; format: cell-based; conditions: Homo sapiens, UMUC3, FGFR3 status WT, 72 hours, read-out: Ganetespib IC50
Method: as §1

HT29 cells = assay: Cell viability assay, HT29 colorectal cancer cells; conditions: Homo sapiens, HT-29, read-out: IC50 based on cell viability
Method: (§3) 24 hours after transfection, […] were seeded in triplicate in 96-well plates one day before treatment. Cells were treated with inhibitors and drugs for 48 hours and subjected to the CellTiterGlo Luminescent Cell Viability assay (Promega, Madison Wis., USA).

[4] = test system: 97-7 bladder cancer cell line; assay: CellTiter-Glo viability assay, 97-7; format: cell-based; conditions: FGFR3 status S249C, 72 hours, read-out: Ganetespib IC50
Method: as §1

[5] = test system: 5637 bladder cancer cell line; assay: CellTiter-Glo viability assay, 5637; format: cell-based; conditions: FGFR3 status WT, 72 hours, read-out: Ganetespib IC50
Method: as §1

[6] = test system: TCCSUP bladder cancer cell line; assay: CellTiter-Glo viability assay, TCCSUP; format: cell-based; conditions: Homo sapiens, TCC-SUP, FGFR3 status WT, 72 hours, read-out: Ganetespib IC50
Method: as §1

[7] = test system: SCaBER bladder cancer cell line; assay: CellTiter-Glo viability assay, SCaBER; format: cell-based; conditions: Homo sapiens, FGFR3 status WT, 72 hours, read-out: Ganetespib IC50
Method: as §1

[8] = test system: DHS1 bladder cancer cell line; assay: CellTiter-Glo viability assay, DHS1; format: cell-based; conditions: FGFR3 status WT, 72 hours, read-out: Ganetespib IC50
Method: as §1

SW780 cells = assay: LC-MS/MS bioanalysis of ganetespib and glucuronidated metabolites in SW780 cells; format: in vitro ADME; conditions: 1 μM ganetespib, by 24 hours
Method: as §2

[9] = test system: 647-V bladder cancer cell line; assay: CellTiter-Glo viability assay, 647-V; format: cell-based; conditions: Homo sapiens, FGFR3 status WT, 72 hours, read-out: Ganetespib IC50
Method: as §1

[10] = test system: panel of eleven CRC-derived cell lines; assay: Proliferation assay in CRC-derived cell lines (Celigo confluence); format: cell-based; conditions: Homo sapiens, 96 h; range across eleven CRC cell lines; four days; read-out: Drug concentrations that inhibited the growth rate by 50%
Method: Eleven cell lines derived from human colorectal cancers (CRC) were cultured in RPMI (Invitrogen, Darmstadt, Germany) supplemented with 10% FCS (ThermoScientific, Waltham Mass., USA), 2 mM L-glutamine and Penicillin-Streptomycin (Invitrogen). Cell-line cross-contaminatino was excluded using short tandem repeat profiling. Specific knockdown of target genes was performed using pre-designed Silencer Select siRNAs (s231075 and s231076, designated s75 and s76) or control siRNAs (scrambled, all from Ambion, Hamburg, Germany) with a final concentration of 5 nM. Overexpression was performed with pCMV-SPORT6 vector constructs. For both up- and downregulation, Lipofectamine 2000 (Invitrogen) was applied in a forward transfection protocol. Ganetespib (Synta Pharma, Lexington Mass., USA) and 17AAG (Calbiochem, Darmstadt, Germany) were dissolved in DMSO (50 mM and 5 mM stocks, respectively) and diluted to the indicated concentrations with culture medium.
For cell proliferation analysis, cells were seeded at 10^5 cells/well in 12-well plates 24 hours prior to treatment. […] Over the course of the 4-day treatment, cell confluence was measured by brightfield microscopy using a Celigo Adherent Cell Cytometer (Brooks, Chelmsford Mass., USA). Confluence was calculated with the Celigo software program.

[11] = test system: 639-V bladder cancer cell line; assay: CellTiter-Glo viability assay, 639-V; format: cell-based; conditions: Homo sapiens, FGFR3 status R248C, 72 hours, read-out: Ganetespib IC50
Method: as §1

SW1463 cells = assay: Cell viability assay, SW1463 colorectal cancer cells; conditions: Homo sapiens, read-out: IC50 based on cell viability
Method: as §3

[12] = test system: FGFR3-TAAC3 in RT112 cells; assay: Western blotting of FGFR3-TAAC3 and signaling proteins in RT112 cells; format: cell-based; conditions: 200 nM ganetespib
Method: Following in vitro assays, tumor cells were disrupted in lysis buffer on ice for 10 minutes. Lysates were clarified by centrifugation and equal amounts of proteins resolved by SDS-PAGE before transfer to nitrocellulose membranes (Bio-Rad). Membranes were blocked with StartingBlock T20 blocking buffer (Thermo Scientific) and immunoblotted with the indicated antibodies. Antibody-antigen complexes were visualized using an Odyssey system (LI-COR).

[13] = test system: HT-1197 bladder cancer cell line; assay: CellTiter-Glo viability assay, HT-1197; format: cell-based; conditions: Homo sapiens, HT1197, FGFR3 status WT, 72 hours, read-out: Ganetespib IC50
Method: as §1

[14] = test system: LB831-BLC bladder cancer cell line; assay: CellTiter-Glo viability assay, LB831-BLC; format: cell-based; conditions: FGFR3 status WT, 72 hours, read-out: Ganetespib IC50
Method: as §1

Structure (SMILES): CC(C)c1cc(-c2n[nH]c(=O)n2-c2ccc3c(ccn3C)c2)c(O)cc1O [ganetespib]
- IC50 [1]: 7 nM
- glucuronidated form of ganetespib within cells (RT112 cells): No glucuronidated form of ganetespib was detectable
- IC50 [2]: 3450 nM
- IC50 [3]: 33 nM
- IC50 (HT29 cells): 2000 nM
- IC50 [4]: 38 nM
- IC50 [5]: 44 nM
- IC50 [6]: 142 nM
- IC50 [7]: 10 nM
- IC50 [8]: 6 nM
- intracellular ganetespib concentrations (SW780 cells): undetectable
- IC50 [9]: 27 nM
- IC50 [10]: 36 to 2500 nM
- IC50 [11]: 10 nM
- IC50 (SW1463 cells): 100 nM
- time to destabilization of the FGFR3-TAAC3 fusion and alterations in downstream signaling [12]: ≤ 4 h
- IC50 [13]: 53 nM
- IC50 [14]: 34 nM
